Reference: ChEMBL document CHEMBL1128623, “Influence of the absolute configuration at C-4 in the binding of d-myoinositol 1,4,5 trisphosphate analogues to IP3 receptor” (Bioorg Med Chem Lett, 1995)

Key:
Settings in all cases: Membrane
[1] = biological target: Inositol 1,4,5-trisphosphate-gated calcium channel ITPR3 (Rattus norvegicus) (UniProt Q63269); test: Inositol 1,4,5-trisphosphate receptor activity by residual [3H]- IP3 binding to rat cerebellar membranes by the compound at logC = -7M
[2] = biological target: Inositol 1,4,5-trisphosphate-gated calcium channel ITPR3 (Rattus norvegicus) (UniProt Q63269); test: Inositol 1,4,5-trisphosphate receptor activity by residual [3H]- IP3 binding to rat cerebellar membranes by the compound at logC = -9M
[3] = biological target: Inositol 1,4,5-trisphosphate-gated calcium channel ITPR3 (Rattus norvegicus) (UniProt Q63269); test: Inositol 1,4,5-trisphosphate receptor activity by residual [3H]- IP3 binding to rat cerebellar membranes by the compound at logC = -6M
[4] = biological target: Inositol 1,4,5-trisphosphate-gated calcium channel ITPR3 (Rattus norvegicus) (UniProt Q63269); test: Inositol 1,4,5-trisphosphate receptor activity by residual [3H]- IP3 binding to rat cerebellar membranes by the compound at logC = -5M
[5] = biological target: Inositol 1,4,5-trisphosphate-gated calcium channel ITPR3 (Rattus norvegicus) (UniProt Q63269); test: Inositol 1,4,5-trisphosphate receptor activity by residual [3H]- IP3 binding to rat cerebellar membranes by the compound at logC = -8M

Chain of Inositol 1,4,5-trisphosphate-gated calcium channel ITPR3 (Rattus norvegicus) (Q63269 whole entry): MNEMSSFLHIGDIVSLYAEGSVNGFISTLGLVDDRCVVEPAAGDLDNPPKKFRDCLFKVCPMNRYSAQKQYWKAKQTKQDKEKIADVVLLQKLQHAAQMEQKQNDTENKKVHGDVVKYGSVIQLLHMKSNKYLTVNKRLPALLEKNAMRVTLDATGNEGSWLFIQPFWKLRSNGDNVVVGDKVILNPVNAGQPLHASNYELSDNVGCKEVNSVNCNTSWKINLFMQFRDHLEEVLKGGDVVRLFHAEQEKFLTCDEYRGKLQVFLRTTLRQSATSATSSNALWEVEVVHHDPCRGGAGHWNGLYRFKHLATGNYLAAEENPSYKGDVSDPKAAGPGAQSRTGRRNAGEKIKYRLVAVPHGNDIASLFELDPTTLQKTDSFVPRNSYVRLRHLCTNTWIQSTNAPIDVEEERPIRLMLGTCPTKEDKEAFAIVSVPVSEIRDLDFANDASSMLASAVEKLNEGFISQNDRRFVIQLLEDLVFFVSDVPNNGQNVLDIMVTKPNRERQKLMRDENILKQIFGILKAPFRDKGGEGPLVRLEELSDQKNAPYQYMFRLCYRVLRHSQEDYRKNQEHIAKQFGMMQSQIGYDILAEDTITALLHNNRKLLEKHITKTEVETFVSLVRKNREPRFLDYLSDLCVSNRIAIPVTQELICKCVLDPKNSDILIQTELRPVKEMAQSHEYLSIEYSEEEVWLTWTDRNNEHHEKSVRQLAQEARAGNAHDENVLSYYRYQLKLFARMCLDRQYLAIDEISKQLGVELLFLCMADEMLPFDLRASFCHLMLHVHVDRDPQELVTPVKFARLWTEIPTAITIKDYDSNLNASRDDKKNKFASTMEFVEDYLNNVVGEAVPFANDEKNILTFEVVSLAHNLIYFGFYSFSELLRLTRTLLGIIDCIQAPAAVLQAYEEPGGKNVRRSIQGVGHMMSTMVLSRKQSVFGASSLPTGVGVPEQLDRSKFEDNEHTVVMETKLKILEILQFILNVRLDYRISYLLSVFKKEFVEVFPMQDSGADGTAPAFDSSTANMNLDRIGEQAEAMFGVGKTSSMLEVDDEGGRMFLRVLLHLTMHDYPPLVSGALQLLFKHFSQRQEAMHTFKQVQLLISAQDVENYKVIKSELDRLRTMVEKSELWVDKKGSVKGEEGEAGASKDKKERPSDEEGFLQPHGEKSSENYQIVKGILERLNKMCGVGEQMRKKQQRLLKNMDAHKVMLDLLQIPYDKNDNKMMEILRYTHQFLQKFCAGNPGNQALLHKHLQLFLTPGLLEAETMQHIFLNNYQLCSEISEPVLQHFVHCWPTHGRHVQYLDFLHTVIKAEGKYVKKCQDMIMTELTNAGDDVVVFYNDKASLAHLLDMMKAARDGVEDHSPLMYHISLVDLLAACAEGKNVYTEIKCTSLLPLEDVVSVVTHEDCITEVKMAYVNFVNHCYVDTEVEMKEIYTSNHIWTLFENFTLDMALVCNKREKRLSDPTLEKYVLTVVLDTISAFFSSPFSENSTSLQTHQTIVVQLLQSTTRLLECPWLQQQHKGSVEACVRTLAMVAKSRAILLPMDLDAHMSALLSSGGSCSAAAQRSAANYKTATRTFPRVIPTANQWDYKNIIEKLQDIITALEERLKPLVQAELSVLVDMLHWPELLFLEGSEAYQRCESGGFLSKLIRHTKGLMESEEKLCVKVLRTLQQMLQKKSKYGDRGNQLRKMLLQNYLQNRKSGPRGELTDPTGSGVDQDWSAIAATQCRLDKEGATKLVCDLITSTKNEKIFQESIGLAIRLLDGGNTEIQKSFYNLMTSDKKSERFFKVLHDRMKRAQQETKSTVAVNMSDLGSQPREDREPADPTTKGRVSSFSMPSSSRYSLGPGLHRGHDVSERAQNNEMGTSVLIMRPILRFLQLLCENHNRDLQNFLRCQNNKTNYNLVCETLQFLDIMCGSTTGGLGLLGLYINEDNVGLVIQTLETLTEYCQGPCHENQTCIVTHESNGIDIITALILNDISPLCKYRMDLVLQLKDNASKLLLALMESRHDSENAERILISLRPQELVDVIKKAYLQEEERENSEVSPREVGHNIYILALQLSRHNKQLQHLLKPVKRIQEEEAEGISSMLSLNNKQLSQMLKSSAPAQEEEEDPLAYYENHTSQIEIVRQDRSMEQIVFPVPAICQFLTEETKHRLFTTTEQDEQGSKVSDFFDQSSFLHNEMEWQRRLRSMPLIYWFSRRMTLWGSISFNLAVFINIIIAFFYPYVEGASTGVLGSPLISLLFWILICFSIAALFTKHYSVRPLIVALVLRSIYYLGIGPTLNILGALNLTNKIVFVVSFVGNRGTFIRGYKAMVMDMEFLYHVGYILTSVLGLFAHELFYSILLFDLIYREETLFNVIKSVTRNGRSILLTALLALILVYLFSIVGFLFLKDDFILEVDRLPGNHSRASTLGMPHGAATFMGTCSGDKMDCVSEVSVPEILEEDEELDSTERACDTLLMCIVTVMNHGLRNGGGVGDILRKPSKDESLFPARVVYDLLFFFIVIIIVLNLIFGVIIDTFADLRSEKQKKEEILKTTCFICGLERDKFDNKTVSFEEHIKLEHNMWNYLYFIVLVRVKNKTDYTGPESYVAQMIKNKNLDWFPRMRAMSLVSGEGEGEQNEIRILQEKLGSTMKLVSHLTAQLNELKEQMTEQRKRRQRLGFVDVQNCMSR

Row | residual activity [1] | residual activity [2] | residual activity [3] | residual activity [4] | residual activity [5] | Compound
1 | 20% | 95% | 5% | 5% | 70% | O=P(O)(O)O[C@@H]1[C@H](O)[C@@H](O)[C@@H](OP(=O)(O)O)[C@H](OP(=O)(O)O)[C@H]1O
2 | 100% | 100% | 80% | 40% | 110% | O=P(O)(O)O[C@@H]1[C@@H](O)[C@H](OP(=O)(O)O)[C@H](O)C[C@@H]1OP(=O)(O)O
3 | 50% | – | 20% | – | 100% | O=P(O)(O)O[C@@H]1[C@@H](O)[C@H](OP(=O)(O)O)[C@H](O)C[C@H]1OP(=O)(O)O
